According to patent US8470806B2, “Perhexiline for treating chronic heart failure” (Heart Metabolics Limited, priority 2004, dated 2013):

How the values were obtained:
patients with CHF [1] = assay: Safety and tolerability in the 8-week study (side effects, corrected QT, liver function, neuropathy)
Protocol: Following baseline studies, patients were randomized in a double-blind fashion to receive either perhexiline (n=28) or placebo (n=28) 100 mg twice daily. Blood was obtained at 1, 4, and 8 weeks after initiation of the drug for measurements of serum perhexiline levels with subsequent dose titration in order to prevent toxicity. Dose adjustments were advised as per a standard protocol by an unblinded physician. Identical dosage adjustments were also made for randomly allocated placebo-treated patients by the unblinded observer in order to ensure blinding of the investigators was maintained. After 8 weeks of treatment, patients were re-evaluated as above.

[2] = system: patients with CHF (ischemic group); assay: Tissue Doppler / dobutamine stress echocardiography, ischemic group; assay type: in vivo, human; design: Mean PSV (15 segments): unit not given beside the values
Protocol: Tissue Doppler assessment of the left ventricle was performed at rest and analysed off-line using Echopac software in order to determine regional myocardial PSV from 15 left ventricular segments described in detail elsewhere (20). These segments were selected to include all areas supplied by the three major coronary arteries and for the greatest reproducibility for acquisition of PSV (21). (See FIG. 4) Following resting echocardiography dobutamine infusion was commenced via a syringe driver and incremented at 3 minute intervals from 5 mcg/kg/min to 10, 20, 30 and 40 mcg/kg/min. Digital loops of 15 views outlined above were stored at 90 seconds of each stage. Up to 1 mg of atropine was given if the hemodynamic response was submaximal. Electrocardiograms and blood pressure were monitored at each stage. End-points for termination of the test were attainment of ≧85% of the target heart rate, evidence of ischemia, or severe side effects from dobutamine. Data from all stages were analysed off-line as with the resting images. PSV data are expressed as velocity at rest, low dose dobutamine infusion ([…]) and peak dose dobutamine infusion (the last infusion stage before infusion terminated, which may include the addition of atropine).

patients with CHF [3] = assay: Resting echocardiography (LVEF, volumes, long-axis PSV, E:EA ratio); assay type: in vivo, human; conditions: for Long axis function: PSV of lateral mitral valve annulus
Protocol: Echocardiography was performed with patients in the left lateral decubitus position using a Vingmed System V echocardiographic machine and a 2.5 MHz transducer. Images were stored digitally. Resting scans were acquired using standard echocardiographic windows for LVEF, transmitral valve Doppler, and resting tissue Doppler. […] Left ventricular volumes for calculation of LVEF were obtained using biplane echocardiography and the modified Simpson's formula. Volumes were averaged over 3 beats. In addition, on-line tissue Doppler peak systolic velocity (PSV) of the lateral mitral valve annulus was obtained as a reflection of left ventricular long-axis function. In theory, improving metabolic efficiency would also lead to an improvement in diastolic function of the left ventricle as energy is also required for cardiac relaxation. The ratio of peak E wave from transmitral valve Doppler vs. the E wave from tissue Doppler of the lateral mitral valve annulus (E:EA ratio) is a sensitive indicator of left ventricular end diastolic pressure (19). […] The primary end-point for this study was pre-defined as VO2 max with the following secondary endpoints: MLHFQ score, LVEF, E:EA ratio, resting, low dose and high dose mean PSV during stress echocardiography and PCr t½. Therapy randomization of the ischemic and non-ischemic groups occurred separately but with similar protocols in order to allow for pre-hoc analysis of the primary endpoint in each group. […] Data were analyzed with SPSS 11.5 for Windows® and expressed as mean±standard error of mean. ANCOVA using baseline values as covariates was performed to test for significance of differences seen in the perhexiline vs. placebo groups following treatment.

patients with CHF [4] = assay: NYHA class before and after treatment; assay type: in vivo, human
Protocol: 56 patients with CHF were recruited and all provided written informed consent. Entry criteria were as follows: left ventricular ejection fraction (LVEF) <40%, optimally medicated heart failure with New York Heart Association (NYHA) Class II-III symptoms. Cardiopulmonary exercise testing with respiratory gas analysis, completion of the Minnesota Living with Heart Failure Questionnaire (MLHFQ) and 2-D echocardiography were performed at baseline on all patients.

patients with CHF [5] = assay: Cardiopulmonary exercise test (treadmill, Weber protocol, respiratory gas analysis); assay type: in vivo, human; conditions: for VO2max: mean ± SEM
Source text: An embodiment of the invention will now be described by way of example only wherein a double-blind, randomised, placebo-controlled study was undertaken in order to investigate the effects of perhexiline on chronic heart failure. 56 patients with CHF were recruited and all provided written informed consent. Entry criteria were as follows: left ventricular ejection fraction (LVEF) <40%, optimally medicated heart failure with New York Heart Association (NYHA) Class II-III symptoms. Cardiopulmonary exercise testing with respiratory gas analysis, completion of the Minnesota Living with Heart Failure Questionnaire (MLHFQ) and 2-D echocardiography were performed at baseline on all patients. Incremental exercise testing with assessment of respiratory gas exchange was performed on a treadmill using the Weber protocol. Breath by breath respiratory gases were measured during exercise using a Pulmolab EX670 system mass spectrometer which was calibrated before every study. Raw data were averaged to 30 second intervals and oxygen consumption during peak exercise was obtained (VO2 max; ml/kg/min). Electrocardiograms and blood pressure were monitored throughout. Exercise was terminated at the subject's request due to fatigue or breathlessness. […] The primary end-point for this study was pre-defined as VO2 max with the following secondary endpoints: MLHFQ score, LVEF, E:EA ratio, resting, low dose and high dose mean PSV during stress echocardiography and PCr t½. Therapy randomization of the ischemic and non-ischemic groups occurred separately but with similar protocols in order to allow for pre-hoc analysis of the primary endpoint in each group. […] Data were analyzed with SPSS 11.5 for Windows® and expressed as mean±standard error of mean. ANCOVA using baseline values as covariates was performed to test for significance of differences seen in the perhexiline vs. placebo groups following treatment.

patients with CHF [6] = assay: Minnesota Living with Heart Failure Questionnaire (MLHFQ); assay type: in vivo, human; conditions: for Minnesota living with heart failure questionnaire score: higher score = poorer quality of life
Protocol: A standard 21-question MLHFQ was employed to determine if perhexiline affected patient quality of life. This is a well validated measure of symptomatology in heart failure (17) and includes questions to assess the ability to perform activities of daily living as well as questions gauging the severity of symptoms due to heart failure. Each question was scored out of 5. The sum of the scores were calculated where a higher score indicated a poorer quality of life. All patients completed the questionnaires alone and without assistance. […] The primary end-point for this study was pre-defined as VO2 max with the following secondary endpoints: MLHFQ score, LVEF, E:EA ratio, resting, low dose and high dose mean PSV during stress echocardiography and PCr t½. Therapy randomization of the ischemic and non-ischemic groups occurred separately but with similar protocols in order to allow for pre-hoc analysis of the primary endpoint in each group. […] Data were analyzed with SPSS 11.5 for Windows® and expressed as mean±standard error of mean. ANCOVA using baseline values as covariates was performed to test for significance of differences seen in the perhexiline vs. placebo groups following treatment.

Serum perhexiline levels = assay type: in vivo; conditions: human
[7] = Post, after 8 weeks of treatment
[8] = all patients of the perhexiline group, 8 weeks

For C1CCC(C(CC2CCCCN2)C2CCCCC2)CC1 (centres unmarked) [Perhexiline, 2-(2,2-dicyclohexylethyl)piperidine], the “deaths during the study period” value (patients with CHF [1]; 8-week course) was “no deaths in either group”, the “Corrected QT Interval” value (patients with CHF [1]; Post, after 8 weeks) was 413 ± 13 ms and the “Corrected QT Interval” value (patients with CHF [1]; Pre (baseline)) was 413 ± 11 ms. The Side effects (patients with CHF [1]; perhexiline group, 8-week course) was “restricted to transient nausea and dizziness during the first week of treatment”, the “abnormal liver function tests or neuropathy” value (patients with CHF [1]; with close serum level monitoring and titration) was “None of the patients in this study developed abnormal liver function tests or neuropathy” and the “Mean PSV (15 segments)” value ([2]; Low Dose dobutamine, Post) was 5.0 ± 0.5. The “Mean PSV (15 segments)” value ([2]; Low Dose dobutamine, Pre) was 4.7 ± 0.3, the “Mean PSV (15 segments)” value ([2]; Peak Dose dobutamine, Post) was 8.2 ± 0.8 and the “Mean PSV (15 segments)” value ([2]; Peak Dose dobutamine, Pre) was 6.6 ± 0.5. For the same compound, the “Mean PSV (15 segments)” value ([2]; Rest, Post) was 3.8 ± 0.2, the “Mean PSV (15 segments)” value ([2]; Rest, Pre) was 3.3 ± 0.2 and the “increase in peak dose PSV” value ([2]; ischemic cohort, peak dose dobutamine, 8 weeks) was 24%. For the same compound, the “increase in resting mean PSV following treatment” value ([2]; ischemic cohort, rest, 8 weeks) was 15%, the “increase of mean LVEF following treatment” value (patients with CHF [3]; 8 weeks) was 9.9 ± 2.0 absolute percentage points and the “relative increase of mean LVEF” value (patients with CHF [3]; 8 weeks) was 42%. The “E:EA Ratio” value (patients with CHF [3]; Post, after 8 weeks) was 6.5 ± 0.9, the “Left ventricular ejection fraction” value (patients with CHF [3]; Post, after 8 weeks) was 34 ± 2 % and the “Left ventricular end-diastolic volume” value (patients with CHF [3]; Post, after 8 weeks) was 212 ± 9 mL. The “Left ventricular end-systolic volume” value (patients with CHF [3]; Post, after 8 weeks) was 140 ± 8 mL, the Long axis function (patients with CHF [3]; Post, after 8 weeks) was 7.2 ± 0.6^|| cm/s and the “E:EA Ratio” value (patients with CHF [3]; Pre (baseline)) was 8.6 ± 0.6. The “Left ventricular ejection fraction” value (patients with CHF [3]; Pre (baseline)) was 24 ± 1%, the “Left ventricular end-diastolic volume” value (patients with CHF [3]; Pre (baseline)) was 232 ± 11 mL and the “Left ventricular end-systolic volume” value (patients with CHF [3]; Pre (baseline)) was 176 ± 8 mL. The Long axis function (patients with CHF [3]; Pre (baseline)) was 5.8 ± 0.4 cm/s, the “NYHA Class” value (patients with CHF [4]; Post, after 8 weeks) was 1.9 ± 0.2^+ and the “NYHA Class” value (patients with CHF [4]; Pre (baseline)) was 2.4 ± 0.1. The “Exercise Time” value (patients with CHF [5]; [7]) was 12.3 ± 1.1 min, the VO2max (patients with CHF [5]; [7]) was 18.8 ± 1.1 mL/min/kg and the “Exercise Time” value (patients with CHF [5]; Pre (baseline)) was 10.5 ± 1.2 min. For the same compound, the VO2max (patients with CHF [5]; Pre (baseline), perhexiline group) was 16.1 ± 0.6 mL/min/kg, the “increase in VO2 max following treatment” value (patients with CHF [5]; [8]) was 2.7 ± 0.8 mL/min/kg and the “increase in VO2 max following treatment (relative)” value (patients with CHF [5]; [8]) was 16.7%. The “increase in VO2 max” value (patients with CHF [5]; ischemic group, 8 weeks) was 2.9 ± 1.2 mL/min/kg, the “increase in VO2 max” value (patients with CHF [5]; non-ischemic group, 8 weeks) was 2.5 ± 0.4 mL/min/kg and the “reduction of MLHFQ scores following treatment” value (patients with CHF [6]; 8 weeks) was 24.4%. The “Minnesota living with heart failure questionnaire score” value (patients with CHF [6]; Post, after 8 weeks) was 34 ± 5, the “Minnesota living with heart failure questionnaire score” value (patients with CHF [6]; Pre (baseline)) was 45 ± 5 and the concentration at 1 week (Serum perhexiline levels; Week 1, 100 mg twice daily with dose titration) was 570 ± 190 ng/mL. The concentration at 4 weeks (Serum perhexiline levels; Week 4, 100 mg twice daily with dose titration) was 670 ± 200 ng/mL and the concentration at 8 weeks (Serum perhexiline levels; Week 8, 100 mg twice daily with dose titration) was 430 ± 120 ng/mL.
